Measurements taken from EP0618203A1, “3-O-acylated catechins and method of producing same” (MITSUI NORIN CO., LTD., priority 1993, dated 1994).

Legend:
[1] = Antioxidative activity in salad oil, Rancimat method (induction time); conditions: 100ppm in salad oil, 120°C, Control 3.40
Procedure: We investigated the antioxidative activity of the acylated derivatives of (-)-epigallocatechin, one of the most powerful antioxidants in tea. […] (The reaction was conducted at a temperature of 120°C).

[2] = Solubility in fats and oils (turbidity of salad oil, absorbance at 660nm); assay type: physicochemical; conditions: sample added to salad oil (Honen Corporation) at 100ppm; turbidity as absorbance at 660nm; Control 0.057; lower = better dissolved
Procedure: Each sample was added to salad oil (Honen Corporation) in a concentration of 100ppm, and turbidity was determined by measuring absorbance at 660nm.

OD 660 [2] | Structure (SMILES) | Induction Time [1] [h]
– | CCC(=O)O[C@@H]1Cc2c(O)cc(O)cc2O[C@@H]1c1cc(O)c(O)c(O)c1 [(-)-3-0-Propionyl epigallocatechin, (-)-3-0-propionyl epigallocatechin] | 6.02
– | CCCC(=O)O[C@@H]1Cc2c(O)cc(O)cc2O[C@@H]1c1cc(O)c(O)c(O)c1 [(-)-3-0-Butyryl epigallocatechin, (-)-3-0-butyryl-epigallocatechin] | 6.07
0.277 | Oc1cc(O)c2c(c1)O[C@H](c1cc(O)c(O)c(O)c1)[C@H](O)C2 [(-)-Epigallocatechin, (-)-epigallocatechin] | 6.03
